Row | melting point | SMILES
1 | 188 to 190 °C | COc1cc(Nc2c(C#N)cnc3cc(C#CCCN4CCNCC4)c(OC)cc23)c(Cl)cc1Cl
2 | 141 to 143 °C | COC(=O)c1ccccc1NC(=O)C=C(c1ccc(Cl)cc1)c1ccc(Cl)cc1
3 | 220 to 223 °C | COc1ccc(Cl)cc1NC(=S)C1CCCCn2c1nc(-c1ccncn1)cc2=O (racemic)
4 | 135 to 136 °C | CN1C[C@@H](C(=O)OC(C)(C)C)NC1=O
5 | 230 to 233 °C | O=C(Nc1ccc(Cl)cn1)c1cc(F)ccc1NCC1CCNCC1
6 | 198 to 199 °C | CCOC(=O)c1nc2c(=O)[nH]c3cc(C(F)(F)F)ccc3n2c1P(=O)(OCC)OCC
7 | 126 °C | C=CCC(O)c1c(-c2ccc(F)cc2)nc(N(C)S(C)(=O)=O)nc1C(C)C (stereo unspecified)
8 | 109 to 110 °C | O=C1c2ccccc2C(=O)N1CCCn1ccnc1-c1ccccc1
9 | 111 °C | CCOC(=O)C1=C(C)NN=C(CC)C1c1ccc(Cl)cc1 (stereo unspecified)
10 | 89 °C | OCC1OC(n2cnc3cncnc32)CC1F (stereo unspecified)
11 | 206 to 208 °C | CCc1cccc(C)c1CNc1cc(Br)cc2c1nc(CO)n2C
12 | 197 to 199 °C | CCc1nc2c(N)nc3cc(CCC(N)=O)ccc3c2n1CC1CCOCC1
13 | 73 to 75 °C | CC(C)(C)OC(=O)N1[C@H](C=CCCCO)COC1(C)C
14 | 168 to 170 °C | CC(C)(C)c1cc(N(C(=O)CCCC(=O)O)c2ccccc2)cc(C(C)(C)C)c1O
15 | 125 to 126 °C | Cc1nc(C(=O)Nc2ccc3[nH]cc(C4CCN(C)CC4)c3n2)c(C)s1
16 | 99 to 100 °C | CCOC(=O)C1=C(C)C2=C(CC1)SCCC2=O
17 | 140 to 143 °C | CCOC(=O)c1cn2c(-c3nn(C)c(OC(F)F)c3Cl)c(F)cc(Cl)c2n1
18 | 59 °C | CO/C=C(/C(=O)OC)c1ccccc1COc1nc(C(F)(F)F)sc1C
19 | 170 °C | Cc1ccc(=NC(=O)C(F)(F)F)n(Cc2ccc(Cl)s2)c1
20 | 149 to 150 °C | COc1ccc(-c2nc(-c3ccccc3)n(CCCCCCCC(=O)O)c2-c2ccc(OC)cc2)cc1
21 | 224 to 226 °C | COc1cc(N(C)C)nc(NC(=O)NS(=O)(=O)c2ccccc2Cl)n1
22 | 145 to 146 °C | CCN(CC)c1ccc(C(c2ccc(N(C)C)cc2)c2ccc(N(C)C)cc2)c(OC(=O)Nc2ccccc2)c1
23 | 213 to 214 °C | Cc1ccnc(N2CCN(CCC3Cn4c(-c5ccc(O)cc5)c(C)c5cccc(c54)O3)CC2)c1 (stereo unspecified)
24 | 123 to 124 °C | COc1ccccc1Oc1c(Cl)nc(SC)nc1NS(=O)(=O)c1ccc(C(C)(C)C)cc1

Row | melting point | SMILES
25 | 275 to 276 °C | CC(C)(C)C1=CC(=Nc2cc(C(=O)O)ccc2O)C=C(C(C)(C)C)C1=O
26 | 93 to 95 °C | CC(C)(C)c1ccc(OCC(=O)O)cc1
27 | 31 to 32 °C | O=C(CCCCC1CCSS1)N1CCSCC1 (stereo unspecified)
28 | 109 to 110 °C | C=CC(=O)NC1CCCCC1
29 | 146 to 150 °C | CCC(=O)N(C)c1cccc(-c2ccc3nncn3n2)c1
30 | > 280 °C | Cc1ccc(CC2CCN(C(=O)C(=O)Nc3ccc4[nH]c(=O)[nH]c4c3)CC2)cc1
31 | 47 to 48 °C | COC(=O)COc1ccc(CCCO)cc1
32 | 67 °C | COC(=O)c1cc(I)c(O)c(C(C)(C)C)c1
33 | 112 to 114 °C | COc1ccc([N+](=O)[O-])c(NC(=O)OC(C)(C)C)c1
34 | 179 to 183 °C | O=C(CBr)OCN1C(=O)NC(c2ccccc2)(c2ccccc2)C1=O
35 | 158 to 160 °C | OC(Cc1ccncc1)(c1ccc(F)cc1)c1ccc(F)cc1
36 | 234 to 236 °C | CCCCc1nc2cccc(C(=O)O)c2n1Cc1ccc(-c2ccccc2S(=O)(=O)NC(=O)NCC2CC2)cc1
37 | 130 to 136 °C | O=C1c2cc(Cl)ccc2CN2C(=NO)CCC12 (stereo unspecified)
38 | 140 to 143 °C | COC(=O)c1cccc(OC)c1OS(=O)(=O)NC(=O)Nc1nc(C)cc(Cl)n1
39 | 50 to 52 °C | CCCCSc1nc2c(cc1C#N)C(=O)CC(C)(C)C2
40 | 179 to 180 °C | COc1ccc2c(cc3n2CCc2ccccc2-3)n1
41 | 177 to 180 °C | CCc1nc2c(O)c(CCC(=O)c3ccccc3)c(C(=O)N(C)C)cc2n1C
42 | 208 to 210 °C | CC(=O)OC(c1ccc(Cl)c2nc3n(c12)CCCN3c1ccc(Cl)cc1Cl)C1CC1 (stereo unspecified)
43 | 124 to 125 °C | N#CC(=NO)c1cccc(Oc2ccccc2)c1
44 | 44 °C | OCCC(CCO)c1ccccn1
45 | > 300 °C | COC(=O)C=Cc1[nH]c(=O)c2c(ccc3nc(Nc4c(Cl)cccc4Cl)n(C)c32)c1C
46 | 124 to 125 °C | O=C(O)C(=O)c1ccc(OCCOc2cccc3ccccc23)cc1
47 | 106 to 108 °C | COc1ccc2c(c1)N(C(C)=O)c1cccc(SC)c1S2
48 | 208 to 210 °C | c1ccc(C(NC2C3CC4CC(C3)CC2(OCc2ccc(-c3nc5ccccc5o3)cc2)C4)(c2ccccc2)c2ccccc2)cc1 (stereo unspecified)

Row | melting point | SMILES
49 | 222 to 224 °C | COc1cc2ncc(C#N)c(Nc3ccc(C)c(O)c3)c2cc1OC
50 | 180 to 182 °C | C#Cc1cnc2sc(S(=O)(=O)CCCCCCC)nn2c1=O
51 | 84 to 88 °C | [N-]=[N+]=Nc1c([N+](=O)[O-])cnn1-c1c(Cl)cc(C(F)(F)F)c(Cl)c1Cl
52 | 102 to 103 °C | CC(C)C[C@H](NC(=O)OC1CCCCC1)C(=O)N[C@@H](Cc1ccccc1)C(=O)CSCc1ccco1
53 | 221 °C | CN1CCN(Cc2c(Cl)ccc(C(=O)O)c2Cl)C1=O
54 | 100 to 101 °C | CCC(O)(c1ccc(Cl)cc1)c1ccc(OCc2cccc(C)n2)cc1 (stereo unspecified)
55 | 187 to 188 °C | CC1Cc2cc3c(cc2C(c2ccc([N+](=O)[O-])cc2)=NN1C(=S)Cl)OCO3 (stereo unspecified)
56 | 130 to 131 °C | c1ccc(NN2Cc3ccccc3C2)nc1
57 | 105 to 109 °C | CCCc1c(OCCCC/C=C/c2ccc(C(=O)c3cccc(C(=O)O)c3)cc2CCC(=O)O)ccc2c1OCCC2=O
58 | 158 to 163 °C | Clc1ccc(C2c3ccc(Cl)cc3-c3ncncc32)cc1 (stereo unspecified)
59 | 187 °C | NNC(=O)NC(c1cccc(Cl)c1)c1ccnc2ccccc12 (stereo unspecified)
60 | 182 to 186 °C | O=C(O)CCn1cc(Br)c2c3c(c(-c4ccccc4Cl)cc21)C(=O)NC3=O
61 | 143 to 144 °C | c1ccc(N=C(Nc2ccccc2)c2ccccc2)cc1
62 | 102 to 105 °C | CNc1ccc(C2=NCCO2)cc1
63 | 97 °C | O=C(NOC(=O)c1ccc(Cl)cc1)OCc1ccccc1
64 | 273 to 275 °C | CN1c2cc(Cl)ccc2-c2nc3ccc(Cl)cc3c3cccc1c23
65 | 208 to 209 °C | Cc1nc(-c2ccc(Cl)cc2)c(CC(Cl)C(=O)O)o1 (stereo unspecified)
66 | 152 to 154 °C | CC(C)(C)C(=O)Oc1ccc(C(=O)NNC(=O)c2occ(-c3ccccc3)c2-c2ccccc2)cc1C#N
67 | 115 to 116 °C | O=C(Nc1ccc2c(c1)CCN(C(=O)OCc1ccccc1)C2)OCc1ccccc1
68 | 55 to 58 °C | CCCCOc1ccc(S(=O)(=O)N2CC(NC[C@H](O)COc3ccc(O)cc3)C2)cc1
69 | 93 to 99 °C | CCCn1c(-c2ccc(-n3ccnc3)cc2)cnc1[C@H](Cc1ccccn1)N(C=O)c1cc2cc(Br)ccc2o1
70 | 154 to 155 °C | COc1ccn2nc(-c3ccccc3)c(-c3ccc(=O)n(C4CCN(C)CC4)n3)c2c1

Row | SMILES | melting point
71 | Cc1ccc(S(=O)(=O)N=[N+]=[N-])cc1 | 79 to 82.5 °C

Reference: a melting point compilation (Tetko et al.; mined from patent text by program, amines drawn as free bases though some values may be those of a salt)
